Common to all, as to format: in vivo, Kunming mice
In test [1] the test system is mice with diabetes mellitus induced by streptozotocin (STZ). Briefly: Fast blood glucose (FBG) in mice with STZ-induced diabetes mellitus. The settings on record: 25 mg/kg oral gavage daily, STZ diabetic mice, x ± S.D, n = 10. Here is the method: Experimental animals: healthy male Kunming mice of clean grade (weighed 18-22 g, provided by Shanghai SLAC Laboratory Animal Co., Ltd.). Experimental method: […] The diabetes mellitus model mice were randomly grouped into a model group (STZ 120 mg/kg), a low-dose Saposhnikovia divaricata polysaccharide group (SDP 50 mg/kg), a high-dose Saposhnikovia divaricata polysaccharide (SDP 200 mg/kg) group, and a positive drug (Glibenclamide, GLI 25 mg/kg) control group, 10 mice per group. For each dosing group, the mice were dosed by oral gavage at 0.2 ml/10 g body weight at 8:00 am every day. The normal control group and the model group were given an equal volume of distilled water. During the experiment, the mice in each group were allowed to access to water ad arbitrium. The FBG and body weight were measured every 10 days. 30 days after the dosing, the mice were treated, and the following indexes were measured.

Test [2] has the same test system. Briefly: Glucose tolerance (i.p. glucose load) in mice with STZ-induced diabetes mellitus. To be noted: 25 mg/kg, x ± S.D, n = 10. Here is the method: Experimental method: The mice were kept at a temperature of 20±2° C. and a humidity of 50±5% under 12 hours of light and 12 hours of darkness for 3 days, during which the mice were allowed to access to food and water ad arbitrium. 10 healthy mice were selected as the normal control group (Control). The remaining mice were intraperitoneally injected with a streptozotocin (STZ) solution at 0.2 ml/10 g body weight. 72 h later, the fast blood glucose (FBG) of the mice was measured. The mice having an FBG value higher than 11.1 mmol/L and lower than 25 mmol/L were selected as diabetes mellitus model mice. The diabetes mellitus model mice were randomly grouped into a model group (STZ 120 mg/kg), a low-dose Saposhnikovia divaricata polysaccharide group (SDP 50 mg/kg), a high-dose Saposhnikovia divaricata polysaccharide (SDP 200 mg/kg) group, and a positive drug (Glibenclamide, GLI 25 mg/kg) control group, 10 mice per group. For each dosing group, the mice were dosed by oral gavage at 0.2 ml/10 g body weight at 8:00 am every day. The normal control group and the model group were given an equal volume of distilled water. During the experiment, the mice in each group were allowed to access to water ad arbitrium. The FBG and body weight were measured every 10 days. 30 days after the dosing, the mice were treated, and the following indexes were measured.
(1) Glucose tolerance: The mice were fasted at 8:00 the day before the end of the experiment. After 4 h, blood was collected from the orbit, and FBG was measured as the blood glucose level before administration of glucose (0 h). Then, all mice were intraperitoneally injected with a 10% glucose solution at 0.2 ml/10 g body weight. 0.5 hour (0.5 h) and 2 hours (2 h) after intraperitoneal injection of glucose, blood was collected from the orbit, and the blood glucose value was measured. The area under the blood glucose curve (AUC) was calculated according to the following equation: […]

For test [3], the system named is mice with hyperlipoidemia. The test is described as follows: Liver TC and TG contents and liver weight coefficient in mice with hyperlipoidemia. The settings on record: positive drug 40 mg/kg. The source says: A hyperlipoidemia model was established with reference to the methods as described in the references (Liyan Sun, Zhenliang Liu, Jinxia Sun, et al., Effect of Imperata cylindrica polysaccharide on hypoxia tolerance in mice, China Journal of Hospital Pharmacy, 2008, 28(2): 96-99; Bin Leng, Intervention of immunoregulation and renal fibrosis by Imperata cylindrica polysaccharide in rats with IgA nephropathy, Dissertations of Guilin Medical University, 2013; Shijing Lv, Qicai Long, Deyuan He, et al., Regulation of lymphocyte proliferation and T cell subpopulation by Imperata cylindrica polysaccharide in patients with hepatitis B, [Conference Paper] 2001—The Second National Academic Conference on Immunology of Traditional Chinese Medicine). Experimental method: The mice were kept at a temperature of 20±2° C. and a humidity of 50±5% under 12 hours of light and 12 hours of darkness for 3 days, during which the mice were allowed to access to food and water ad arbitrium. […] The serum TC, TG, LDL-C and HDL-C levels were measured. A part of the liver tissue of the mice was took, homogenized, and measured for liver TC and TG contents, as well as SOD and GSH-px activities and MDA content. […]

On to `COc1ccc(Cl)cc1C(=O)NCCc1ccc(S(=O)(=O)NC(=O)NC2CCCCC2)cc1` [GLI, glibenclamide], for which the FBG in test [1] (Day 0) was 12.58 ± 2.69 mmol/L; in test [1] (Day 10), 15.95 ± 1.57 mmol/L; in test [1] (Day 20) it was 18.56 ± 3.02 mmol/L; in test [1] (Day 30), 20.44 ± 2.25 mmol/L. In addition, the Blood glucose in test [2] (0 h (before glucose), after 30 days dosing) amounted to 20.44 ± 2.25 mmol/1; in test [2] (0.5 h after i.p. glucose) it was 29.63 ± 2.24 mmol/1; in test [2] (2 h after i.p. glucose), 27.60 ± 2.04 mmol/1. Also, the “Area under the curve (AUC)” value in test [2] (blood glucose curve 0-2 h) came to 40.62 ± 2.86.

`CC(C)OC(=O)C(C)(C)Oc1ccc(C(=O)c2ccc(Cl)cc2)cc1` [Lipanthyl, Fenofibrate]: the liver weight coefficient result in test [3] was “significantly increased”. In test [3] (vs high-fat model group, P<0.01), the “liver TC content” value is “significantly lower”.

Source of the values: patent publication US20210032374A1, “ISOLATED SAPOSHNIKOVIA DIVARICATA POLYSACCHARIDE AND USE THEREOF” (SHANGHAI GREEN VALLEY PHARMACEUTICAL CO., LTD., priority 2018, published 2021).
